Assay results taken from patent US20240182531A1, “KV1.3 Blockers” (priority 2021, published 2024).
Where a SMILES comes first, the peptide text is derived from it. Bridges are numbered along the chain shown (N, C = ends). [ ]: non-standard residue; d: D form. Nle = CCCC[C@H](N)C(=O)O

Tests used:
[1] = target: T1, human Kv1.6 (Homo sapiens, UniProt P17658); test: cell-based; details: ratio of patch clamp IC50 values
T1 construct: expressed in transfected cells; host or cells: CHO

[2] = target: Rat whole blood (Rattus norvegicus, UniProt P15384); type: cell-based; details: IL-17A release, thapsigargin, 24 Hr, at least 2 replicates
Chain of Rat whole blood (P15384 whole entry): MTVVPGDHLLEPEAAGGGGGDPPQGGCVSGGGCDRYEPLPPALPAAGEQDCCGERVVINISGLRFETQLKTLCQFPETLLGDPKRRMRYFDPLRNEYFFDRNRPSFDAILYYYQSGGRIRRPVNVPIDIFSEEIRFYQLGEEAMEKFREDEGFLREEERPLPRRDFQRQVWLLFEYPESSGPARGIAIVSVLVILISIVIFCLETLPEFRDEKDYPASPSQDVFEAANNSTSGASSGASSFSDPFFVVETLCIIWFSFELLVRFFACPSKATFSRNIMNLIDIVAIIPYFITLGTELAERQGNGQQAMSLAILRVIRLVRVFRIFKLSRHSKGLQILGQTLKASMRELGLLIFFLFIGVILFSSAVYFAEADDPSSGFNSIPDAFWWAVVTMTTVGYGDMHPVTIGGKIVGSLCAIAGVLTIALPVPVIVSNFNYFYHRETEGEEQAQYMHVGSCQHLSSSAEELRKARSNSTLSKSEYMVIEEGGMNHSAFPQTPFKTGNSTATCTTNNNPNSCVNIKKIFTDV

[3] = target: T2, human Kv1.1 (Homo sapiens, UniProt Q09470); test: cell-based; details: ratio of patch clamp IC50 values
T2 construct: expressed in transfected cells; host or cells: CHO
T2 sequence (Q09470 whole entry): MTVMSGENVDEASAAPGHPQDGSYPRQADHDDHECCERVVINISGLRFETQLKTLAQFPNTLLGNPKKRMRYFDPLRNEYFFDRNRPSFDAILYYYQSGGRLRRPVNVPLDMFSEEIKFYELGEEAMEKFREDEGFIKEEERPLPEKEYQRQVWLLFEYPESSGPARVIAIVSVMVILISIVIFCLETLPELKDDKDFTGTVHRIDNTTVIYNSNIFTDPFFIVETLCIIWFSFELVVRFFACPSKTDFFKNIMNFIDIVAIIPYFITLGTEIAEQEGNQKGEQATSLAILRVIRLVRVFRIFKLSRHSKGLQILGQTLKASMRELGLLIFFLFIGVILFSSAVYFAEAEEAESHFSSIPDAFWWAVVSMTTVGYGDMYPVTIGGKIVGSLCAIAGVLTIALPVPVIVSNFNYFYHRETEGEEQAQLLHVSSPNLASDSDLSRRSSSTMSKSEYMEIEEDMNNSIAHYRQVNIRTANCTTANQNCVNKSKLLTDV

[4] = target: T3, human Kv1.2 (Homo sapiens, UniProt P16389); test: cell-based; details: ratio of patch clamp IC50 values
T3 construct: expressed in transfected cells; host or cells: CHO
T3 sequence (P16389 whole entry): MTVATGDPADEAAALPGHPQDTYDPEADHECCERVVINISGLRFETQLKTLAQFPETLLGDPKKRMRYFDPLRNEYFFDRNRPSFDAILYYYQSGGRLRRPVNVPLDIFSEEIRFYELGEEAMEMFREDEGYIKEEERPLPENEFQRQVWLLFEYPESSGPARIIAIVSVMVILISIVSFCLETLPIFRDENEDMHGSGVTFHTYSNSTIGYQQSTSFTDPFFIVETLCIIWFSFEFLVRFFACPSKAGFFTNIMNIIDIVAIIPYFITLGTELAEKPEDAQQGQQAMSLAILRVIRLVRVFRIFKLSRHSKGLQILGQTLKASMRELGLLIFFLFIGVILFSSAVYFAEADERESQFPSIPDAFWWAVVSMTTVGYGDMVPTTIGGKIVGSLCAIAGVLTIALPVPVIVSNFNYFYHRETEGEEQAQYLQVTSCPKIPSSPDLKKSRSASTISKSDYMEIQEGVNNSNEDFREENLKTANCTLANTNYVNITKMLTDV

T1 sequence (P17658 whole entry): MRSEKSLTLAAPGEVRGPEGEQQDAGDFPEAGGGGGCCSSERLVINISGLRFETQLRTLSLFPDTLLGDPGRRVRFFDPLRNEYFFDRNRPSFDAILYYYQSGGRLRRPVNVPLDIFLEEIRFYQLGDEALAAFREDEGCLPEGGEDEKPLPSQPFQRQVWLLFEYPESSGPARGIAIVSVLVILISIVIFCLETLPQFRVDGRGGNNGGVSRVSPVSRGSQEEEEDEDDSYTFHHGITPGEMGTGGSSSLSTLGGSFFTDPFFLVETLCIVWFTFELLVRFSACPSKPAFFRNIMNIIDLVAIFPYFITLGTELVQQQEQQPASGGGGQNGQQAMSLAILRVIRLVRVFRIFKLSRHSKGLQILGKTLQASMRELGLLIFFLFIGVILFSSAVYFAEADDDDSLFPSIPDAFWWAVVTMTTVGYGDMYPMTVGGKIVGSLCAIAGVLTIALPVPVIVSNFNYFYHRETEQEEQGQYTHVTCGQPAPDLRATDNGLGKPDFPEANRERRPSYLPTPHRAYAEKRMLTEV

Structure (SMILES)	Selectivity ratio Kv1.6/Kv1.3 [1]	IC50 [2]	Selectivity ratio Kv1.1/Kv1.3 [3]	Selectivity ratio Kv1.2/Kv1.3 [4]
CC[C@H](C)[C@@H]1NC(=O)[C@H](C)NC(=O)[C@H](CCCCN)NC(=O)[C@H](CC(C)C)NC(=O)[C@@H]2CSSC[C@@H](C(=O)N[C@@H](Cc3ccc(O)cc3)C(=O)N3CCC[C@H]3C(=O)N[C@@H](CCCNC(=N)N)C(N)=O)NC(=O)[C@H](CCCCN)NC(=O)[C@@H]3CSSC[C@H](NC(=O)[C@H](CCC(=O)O)NC(=O)[C@H](C(C)C)NC(=O)[C@H](CO)NC(=O)[C@H](C)NC(=O)[C@H](CO)NC(=O)[C@@H](NC(=O)[C@H](CCCNC(=N)N)NC(=O)[C@H](CCSC)NC(=O)[C@H](CC(=O)O)NC(=O)[C@H](CCSC)NC(=O)[C@@H](N)CC(N)=O)CSSC[C@H](NC(=O)[C@H](CCCCN)NC(=O)CNC(=O)[C@H](Cc4ccccc4)NC(=O)[C@H]([C@@H](C)CC)NC(=O)[C@H](CO)NC(=O)CNC1=O)C(=O)N[C@@H](CCSC)C(=O)N[C@@H](CC(N)=O)C(=O)N[C@@H](CCCCN)C(=O)N[C@@H](CCCCN)C(=O)N3)C(=O)N[C@@H](CCCCN)C(=O)N[C@@H](CCC(=O)O)C(=O)N[C@@H](CCCCN)C(=O)N2 [compound 35] (H-NMDMRCSASVECKEKCLKAIGSIFGKCMNKKCKCYPR-NH2; disulfide 6-27, 12-32, 16-34)	>10800	0.86 nM	>10800	648
CC[C@H](C)[C@@H]1NC(=O)[C@H](C)NC(=O)[C@H](CCCCN)NC(=O)[C@H](CC(C)C)NC(=O)[C@@H]2CSSC[C@@H](C(=O)N[C@@H](Cc3ccc(O)cc3)C(=O)N3CCC[C@H]3C(=O)N[C@@H](CCCNC(=N)N)C(N)=O)NC(=O)[C@H](CCCCN)NC(=O)[C@@H]3CSSC[C@H](NC(=O)[C@H](CCC(=O)O)NC(=O)[C@H](C(C)C)NC(=O)[C@H](CO)NC(=O)[C@H](C)NC(=O)[C@H](CO)NC(=O)[C@@H](NC(=O)[C@H](CCCNC(=N)N)NC(=O)[C@H](CCSC)NC(=O)[C@H](CC(=O)O)NC(=O)[C@H](CCSC)NC(=O)[C@@H](N)CC(N)=O)CSSC[C@H](NC(=O)[C@H](CCCCN)NC(=O)CNC(=O)[C@H](Cc4ccccc4)NC(=O)[C@H](CCCCN)NC(=O)[C@H](CO)NC(=O)CNC1=O)C(=O)N[C@@H](CCSC)C(=O)N[C@@H](CC(N)=O)C(=O)N[C@@H](CCCCN)C(=O)N[C@@H](CCCCN)C(=O)N3)C(=O)N[C@@H](CCCCN)C(=O)N[C@@H](CCC(N)=O)C(=O)N[C@@H](CCCCN)C(=O)N2 [compound 38] (H-NMDMRCSASVECKQKCLKAIGSKFGKCMNKKCKCYPR-NH2; disulfide 6-27, 12-32, 16-34)	490	2.1 nM	>7100	237
CC[C@H](C)[C@@H]1NC(=O)[C@H](C)NC(=O)[C@H](CCCCN)NC(=O)[C@H](CC(C)C)NC(=O)[C@@H]2CSSC[C@@H](C(=O)N[C@@H](Cc3ccc(O)cc3)C(=O)N3CCC[C@H]3C(=O)N[C@@H](CCCNC(=N)N)C(N)=O)NC(=O)[C@H](CCCCN)NC(=O)[C@@H]3CSSC[C@H](NC(=O)[C@H](CCC(=O)O)NC(=O)[C@H](C(C)C)NC(=O)[C@H](CO)NC(=O)[C@H](C)NC(=O)[C@H](CO)NC(=O)[C@@H](NC(=O)[C@H](CCCNC(=N)N)NC(=O)[C@H](CCSC)NC(=O)[C@H](CC(=O)O)NC(=O)[C@H](CCSC)NC(=O)[C@@H](N)CC(N)=O)CSSC[C@H](NC(=O)[C@H](CCCCN)NC(=O)CNC(=O)[C@H](Cc4ccccc4)NC(=O)[C@H]([C@@H](C)CC)NC(=O)[C@H](CO)NC(=O)CNC1=O)C(=O)N[C@@H](CCSC)C(=O)N[C@@H](CC(N)=O)C(=O)NCC(=O)N[C@@H](CCCCN)C(=O)N3)C(=O)N[C@@H](CCCCN)C(=O)N[C@@H](CCC(N)=O)C(=O)N[C@@H](CCCCN)C(=O)N2 [compound 40] (H-NMDMRCSASVECKQKCLKAIGSIFGKCMNGKCKCYPR-NH2; disulfide 6-27, 12-32, 16-34)	>9700	1.2 nM	>9700	1422
CC[C@H](C)[C@@H]1NC(=O)[C@H](C)NC(=O)[C@H](CCCCN)NC(=O)[C@H](CC(C)C)NC(=O)[C@@H]2CSSC[C@@H](C(=O)N[C@@H](Cc3ccc(O)cc3)C(=O)N3CCC[C@H]3C(=O)N[C@@H](CCCNC(=N)N)C(N)=O)NC(=O)[C@H](Cc3c[nH]cn3)NC(=O)[C@@H]3CSSC[C@H](NC(=O)[C@H](CCC(=O)O)NC(=O)[C@H](C(C)C)NC(=O)[C@H](CO)NC(=O)[C@H](C)NC(=O)[C@H](CO)NC(=O)[C@@H](NC(=O)[C@H](CCCNC(=N)N)NC(=O)[C@H](CCSC)NC(=O)[C@H](CC(=O)O)NC(=O)[C@H](CCSC)NC(=O)[C@@H](N)CC(N)=O)CSSC[C@H](NC(=O)[C@H](CCCCN)NC(=O)CNC(=O)[C@H](Cc4ccccc4)NC(=O)[C@H]([C@@H](C)CC)NC(=O)[C@H](CO)NC(=O)CNC1=O)C(=O)N[C@@H](CCSC)C(=O)N[C@@H](CC(N)=O)C(=O)N[C@@H](CCCCN)C(=O)N[C@@H](CCCCN)C(=O)N3)C(=O)N[C@@H](CCCCN)C(=O)N[C@@H](CCC(N)=O)C(=O)N[C@@H](CCCCN)C(=O)N2 [compound 41] (H-NMDMRCSASVECKQKCLKAIGSIFGKCMNKKCHCYPR-NH2; disulfide 6-27, 12-32, 16-34)	>16100	0.77 nM	>16100	1816
CCCC[C@@H]1NC(=O)[C@@H]2CSSC[C@H](NC(=O)[C@H](CCCNC(=N)N)NC(=O)[C@H](CCCC)NC(=O)[C@H](CC(=O)O)NC(=O)[C@H](CCCC)NC(=O)[C@@H](N)CC(N)=O)C(=O)N[C@@H](CCCNC(=N)N)C(=O)N[C@@H](C)C(=O)N[C@@H](CO)C(=O)N[C@@H](C(C)C)C(=O)N[C@@H](CCC(=O)O)C(=O)N[C@H]3CSSC[C@H](NC(=O)[C@H](CCCCN)NC(=O)[C@H](CCCCN)NC(=O)[C@H](CC(N)=O)NC1=O)C(=O)N[C@@H](CCCCN)C(=O)N[C@H](C(=O)N[C@@H](Cc1ccc(O)cc1)C(=O)N1CCC[C@H]1C(=O)N[C@@H](CCCNC(=N)N)C(N)=O)CSSC[C@H](NC(=O)[C@H](CCCCN)NC(=O)[C@H](CCC(N)=O)NC(=O)[C@H](CCCCN)NC3=O)C(=O)N[C@@H](CC(C)C)C(=O)N[C@@H](CCCCN)C(=O)N[C@@H](C)C(=O)N[C@@H]([C@@H](C)CC)C(=O)NCC(=O)N[C@@H](CO)C(=O)N[C@@H]([C@@H](C)CC)C(=O)N[C@@H](Cc1ccccc1)C(=O)NCC(=O)N[C@@H](CCCCN)C(=O)N2 [compound 46] (H-N[Nle]D[Nle]RCRASVECKQKCLKAIGSIFGKC[Nle]NKKCKCYPR-NH2; disulfide 6-27, 12-32, 16-34)	1954	0.91 nM	>18600	674
CCCC[C@@H]1NC(=O)[C@@H]2CSSC[C@H](NC(=O)[C@H](CCCNC(=N)N)NC(=O)[C@H](CCCC)NC(=O)[C@H](CC(=O)O)NC(=O)[C@H](CCCC)NC(=O)[C@@H](N)CC(N)=O)C(=O)N[C@@H](CO)C(=O)N[C@@H](C)C(=O)N[C@@H](CO)C(=O)N[C@@H](C(C)C)C(=O)N[C@@H](CCC(=O)O)C(=O)N[C@H]3CSSC[C@H](NC(=O)[C@H](CCCCN)NC(=O)[C@H](CCCCN)NC(=O)[C@H](CC(N)=O)NC1=O)C(=O)N[C@@H](CCCCN)C(=O)N[C@H](C(=O)N[C@@H](Cc1ccc(O)cc1)C(=O)N1CCC[C@H]1C(=O)N[C@@H](CCCNC(=N)N)C(N)=O)CSSC[C@H](NC(=O)[C@H](CCCCN)NC(=O)[C@H](CCCCN)NC(=O)[C@H](CCCCN)NC3=O)C(=O)N[C@@H](CC(C)C)C(=O)N[C@@H](CCCCN)C(=O)N[C@@H](C)C(=O)N[C@@H]([C@@H](C)CC)C(=O)NCC(=O)N[C@@H](CO)C(=O)N[C@@H]([C@@H](C)CC)C(=O)N[C@@H](Cc1ccccc1)C(=O)NCC(=O)N[C@@H](CCCCN)C(=O)N2 [compound 49] (H-N[Nle]D[Nle]RCSASVECKKKCLKAIGSIFGKC[Nle]NKKCKCYPR-NH2; disulfide 6-27, 12-32, 16-34)	>4000	1.4 nM	>4000	343
CCCC[C@@H]1NC(=O)[C@@H]2CSSC[C@H](NC(=O)[C@H](CCCNC(=N)N)NC(=O)[C@H](CCCC)NC(=O)[C@H](CO)NC(=O)[C@H](CCCC)NC(=O)[C@@H](N)CC(N)=O)C(=O)N[C@@H](CO)C(=O)N[C@@H](C)C(=O)N[C@@H](CO)C(=O)N[C@@H](C(C)C)C(=O)N[C@@H](CCC(=O)O)C(=O)N[C@H]3CSSC[C@H](NC(=O)[C@H](CCCCN)NC(=O)[C@H](CCCCN)NC(=O)[C@H](CC(N)=O)NC1=O)C(=O)N[C@@H](CCCCN)C(=O)N[C@H](C(=O)N[C@@H](Cc1ccc(O)cc1)C(=O)N1CCC[C@H]1C(=O)N[C@@H](CCCNC(=N)N)C(N)=O)CSSC[C@H](NC(=O)[C@H](CCCCN)NC(=O)[C@H](CCC(N)=O)NC(=O)[C@H](CCCCN)NC3=O)C(=O)N[C@@H](CC(C)C)C(=O)N[C@@H](CCCCN)C(=O)N[C@@H](C)C(=O)N[C@@H]([C@@H](C)CC)C(=O)NCC(=O)N[C@@H](CO)C(=O)N[C@@H]([C@@H](C)CC)C(=O)N[C@@H](Cc1ccccc1)C(=O)NCC(=O)N[C@@H](CCCCN)C(=O)N2 [compound 50] (H-N[Nle]S[Nle]RCSASVECKQKCLKAIGSIFGKC[Nle]NKKCKCYPR-NH2; disulfide 6-27, 12-32, 16-34)	4359	0.79 nM	>9400	943
